As usually defined, the Ki is the equilibrium dissociation constant of an inhibitor or competing ligand from its target.

Data on 27 molecules can be found in US9452980B2, “Substituted benzamides” (Hoffmann-La Roche Inc., priority 2009, dated 2016).

Structures are written as SMILES. Structures can show the parent of a compound that is named as a salt.

Chain of mouse TAAR1 (Q923Y8 whole entry): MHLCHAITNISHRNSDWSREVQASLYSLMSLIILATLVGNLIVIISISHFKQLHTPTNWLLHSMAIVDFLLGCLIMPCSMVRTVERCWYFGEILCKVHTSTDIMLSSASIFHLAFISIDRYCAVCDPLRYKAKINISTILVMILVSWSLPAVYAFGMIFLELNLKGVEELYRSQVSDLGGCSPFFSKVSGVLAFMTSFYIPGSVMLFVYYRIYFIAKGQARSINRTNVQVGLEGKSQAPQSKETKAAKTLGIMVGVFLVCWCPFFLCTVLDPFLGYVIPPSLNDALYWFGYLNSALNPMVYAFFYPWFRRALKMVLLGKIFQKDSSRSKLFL

For the first experiment, the target named is mouse TAAR1 (Mus musculus (Mouse), UniProt Q923Y8). The experiment is described as follows: Radioligand binding assay on mouse TAAR1. Particulars: mouse TAAR1, HEK-293 membranes, first value of cell mouse/rat; read-out: Ki (μM) mouse. The procedure:
(§1) For the construction of expression plasmids the coding sequences of human, rat and mouse TAAR1 were amplified from genomic DNA essentially as described by Lindemann et al.. The Expand High Fidelity PCR System (Roche Diagnostics) was used with 1.5 mM Mg^2+ and purified PCR products were cloned into pCR2.1-TOPO cloning vector (Invitrogen) following the instructions of the manufacturer. PCR products were subcloned into the pIRESneo2 vector (BD Clontech, Palo Alto, Calif.), and expression vectors were sequence verified before introduction in cell lines.
(§2) HEK293 cells (ATCC #CRL-1573) were cultured essentially as described by Lindemann et al. (2005). For the generation of stably transfected cell lines HEK293 cells were transfected with the pIRESneo2 expression plasmids containing the TAAR coding sequences (described above) with Lipofectamine 2000 (Invitrogen) according to the instructions of the manufacturer, and 24 hrs post transfection the culture medium was supplemented with 1 mg/ml G418 (Sigma, Buchs, Switzerland). After a culture period of about 10 d clones were isolated, expanded and tested for responsiveness to trace amines (all compounds purchased from Sigma) with the cAMP Biotrak Enzyme immunoassay (EIA) System (Amersham) following the non-acetylation EIA procedure provided by the manufacturer.
Radioligand Binding Assay on Mouse TAAR1
(§3) Membrane Preparation and Radioligand Binding.
(§4) HEK-293 cells stably expressing mouse TAAR1 were maintained at 37° C. and 5% CO2 in DMEM high glucose medium, containing fetal calf serum (10%, heat inactivated for 30 min at 56° C.), penicillin/streptomycin (1%), and 375 μg/ml geneticin (Gibco). Cells were released from culture flasks using trypsin/EDTA, harvested, washed twice with ice-cold PBS (without Ca^2+ and Mg^2+), pelleted at 1,000 rpm for 5 min at 4° C., frozen and stored at −80° C. Frozen pellets were suspended in 20 ml HEPES-NaOH (20 mM, pH 7.4) containing 10 mM EDTA and homogenized with a Polytron (PT 6000, Kinematica) at 14,000 rpm for 20 s. The homogenate was centrifuged at 48,000×g for 30 min at 4° C. Subsequently, the supernatant was removed and discarded, and the pellet resuspended in 20 ml HEPES-NaOH (20 mM, pH 7.4) containing 0.1 mM EDTA using the Polytron (20 s at 14,000 rpm). This procedure was repeated and the final pellet resuspended in HEPES-NaOH containing 0.1 mM EDTA and homogenized using the Polytron. Typically, aliquots of 2 ml membrane portions were stored at −80° C. With each new membrane batch the dissociation constant (Kd) was determined via a saturation curve. […] Nonspecific binding was defined as the amount of ^3[H]—(S)-4-[(ethyl-phenyl-amino)-methyl]-4,5-dihydro-oxazol-2-ylamine bound in the presence of 10 μM unlabeled ligand. All compounds were tested at a broad range of concentrations (10 pM to 10 μM) in duplicates. […] The 96 deep well plates were incubated for 1 hr at 4° C. Incubations were terminated by rapid filtration through Unifilter-96 plates (Packard Instrument Company) and glass filters GF/C (Perkin Elmer) presoaked for 1 hr in polyethylenimine (0.3%) and washed 3 times with 1 ml of cold binding buffer. After addition of 45 μl of Microscint 40 (PerkinElmer) the Unifilter-96 plate was sealed and after 1 hr the ratioactivity counted using a TopCount Microplate Scintillation Counter (Packard Instrument Company).
In the case of `C[C@@H](C(=O)Nc1ccc(C2CCNC2)cc1)c1ccccc1` (mixture of isomers) [Example 29, (R)-2-Phenyl-N—((RS)-4-pyrrolidin-3-yl-phenyl)-propionamide], the inhibition constant Ki came to 0.102 µM.

Consider `C[C@H](C(=O)Nc1ccc(C2CCNC2)cc1)c1ccccc1` (mixture of isomers) [Example 30, (S)-2-Phenyl-N—((RS)-4-pyrrolidin-3-yl-phenyl)-propionamide], for which the Ki worked out at 0.053 µM.

As to `CC(C(=O)Nc1ccc(C2CCNC2)cc1)c1ccccc1` (racemic) [Example 25, (RS)-2-Phenyl-N—((RS)-4-pyrrolidin-3-yl-phenyl)-propionamide], the inhibition constant Ki is 0.32 µM.

As to `O=C(Nc1ccc(C2CCNC2)cc1)N1CCCCC1` (racemic) [Example 28, (RS)-Piperidine-1-carboxylic acid (4-pyrrolidin-3-yl-phenyl)-amide], the Ki came to 0.434 µM.

As to `CCN1CCC(c2ccc(NC(=O)c3ccc(Cl)cc3)cc2)C1` (racemic) [Example 33, (RS)-4-Chloro-N-[4-(1-ethyl-pyrrolidin-3-yl)-phenyl]-benzamide], the Ki is 0.0006 µM.

Regarding `COc1cccc(C(C)C(=O)Nc2ccc(C3CCNC3)cc2)c1` (racemic) [Example 67, (RS)-2-(3-Methoxy-phenyl)-N—((RS)-4-pyrrolidin-3-yl-phenyl)-propionamide], the Ki is 0.499 µM.

With `CN1CCOC(c2ccc(NC(=O)c3ccc(Cl)cc3)cc2)C1` (racemic) [Example 80, (RS)-4-Chloro-N-[4-(4-methyl-morpholin-2-yl)-phenyl]-benzamide], the Ki turned out to be 0.0035 µM.

`O=C(Nc1ccc(COC2CCNC2)cc1)c1ccc(Cl)cc1` (racemic) [Example 145, (RS)-4-Chloro-N-[4-(pyrrolidin-3-yloxymethyl)-phenyl]-benzamide hydrochloride]: the Ki is 0.0227 µM.

As for `O=C(Nc1ccc(C2CNCCO2)cc1)c1ccc(Cl)c(Cl)c1` (racemic) [Example 147, (RS)-3,4-Dichloro-N-(4-morpholin-2-yl-phenyl)-benzamide hydrochloride], the Ki worked out at 0.001 µM.

Consider `O=C(Nc1ccc(C2CNCCO2)cc1)c1ccc(Cl)cn1` (racemic) [Example 148, (RS)-5-Chloro-pyridine-2-carboxylic acid (4-morpholin-2-yl-phenyl)-amide hydrochloride], for which the Ki is 0.0393 µM.

With `O=C(Nc1ccc(C2CCNC2)cn1)c1ccc(Cl)cc1` (racemic) [Example 181, (RS)-4-Chloro-N-(5-(pyrrolidin-3-yl)pyridin-2-yl)benzamide hydrochloride], the Ki stood at 0.0663 µM.

The next experiment deals with rat TAAR1 (Rattus norvegicus (Rat), UniProt Q923Y9). The experiment is described as follows: Radioligand binding assay on rat TAAR1. The conditions noted are these: rat TAAR1, HEK-293 membranes, second value of cell mouse/rat; read-out: Ki (μM) rat. How it is done: as §1, §2
Chain of rat TAAR1 (Q923Y9 whole entry): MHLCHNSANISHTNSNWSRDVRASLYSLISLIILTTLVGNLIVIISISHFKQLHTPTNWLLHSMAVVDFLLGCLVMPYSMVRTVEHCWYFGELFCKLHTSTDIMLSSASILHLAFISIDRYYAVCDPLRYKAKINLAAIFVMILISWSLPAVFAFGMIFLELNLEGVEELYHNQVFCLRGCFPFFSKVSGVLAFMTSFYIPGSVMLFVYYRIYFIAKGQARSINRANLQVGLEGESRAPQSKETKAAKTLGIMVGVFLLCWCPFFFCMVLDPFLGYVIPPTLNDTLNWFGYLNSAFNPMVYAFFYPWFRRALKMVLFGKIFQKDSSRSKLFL
Radioligand Binding Assay on Rat TAAR1
as §3
as §4, with “rat” for “mouse”
On to `O=C(NCc1ccccc1)Nc1ccc(C2CCNC2)cc1` (racemic) [Example 9, (RS)-1-Benzyl-3-(4-pyrrolidin-3-yl-phenyl)-urea hydrochloride], for which the Ki worked out at 1.11 µM.

For `O=C(Nc1ccc(C2CCNC2)cc1)NC1CCCCC1` (racemic) [Example 10, (RS)-1-Cyclohexyl-3-(4-pyrrolidin-3-yl-phenyl)-urea hydrochloride], the inhibitory constant (Ki) came to 0.309 µM.

Turning to `O=C(Cc1ccccc1)Nc1ccc(C2CCNC2)cc1` (racemic) [Example 12, (RS)-2-Phenyl-N-(4-pyrrolidin-3-yl-phenyl)-acetamide hydrochloride], the Ki is 0.29 µM.

Regarding `CN(C(=O)Nc1ccc(C2CCNC2)cc1)c1ccccc1` (racemic) [Example 14, (RS)-1-Methyl-1-phenyl-3-(4-pyrrolidin-3-yl-phenyl)-urea], the Ki was 0.645 µM.

For the molecule `O=C(Nc1ccc(C2CCNC2)cc1)N1CCOCC1` (racemic) [Example 21, (RS)-Morpholine-4-carboxylic acid (4-pyrrolidin-3-yl-phenyl)-amide hydrochloride], the Ki is 0.359 µM.

On to `O=C(Nc1ccc(C2CCN(c3ccccc3)C2)cc1)c1ccc(Cl)cc1` (racemic) [Example 36, (RS)-4-Chloro-N-[4-(1-phenyl-pyrrolidin-3-yl)-phenyl]-benzamide], for which the Ki amounted to 0.324 µM.

In the case of `CC1(c2ccc(NC(=O)c3ccccc3)cc2)CCNC1` (racemic) [Example 41, (RS)—N-[4-(3-Methyl-pyrrolidin-3-yl)-phenyl]-benzamide], the Ki is 2.98 µM.

Turning to `COCc1ccc(C(=O)Nc2ccc(C3CCNC3)cc2)cc1` (racemic) [Example 51, (RS)-4-Methoxymethyl-N-(4-pyrrolidin-3-yl-phenyl)-benzamide hydrochloride], the Ki amounted to 0.0985 µM.

`O=C(Nc1ccc(C2CNCCO2)cc1)c1ccc(Cl)cc1` (racemic) [Example 71, (RS)-4-Chloro-N-(4-morpholin-2-yl-phenyl)-benzamide hydrochloride]: the Ki came out at 0.0121 µM.

Take `O=C(Nc1ccc(C2CCNC2)cc1)OCCc1ccc(OC(F)(F)F)cc1` (racemic) [Example 125, (RS)-(4-Pyrrolidin-3-yl-phenyl)-carbamic acid 2-(4-trifluoromethoxy-phenyl)-ethyl ester]: the inhibition constant Ki worked out at 0.0007 µM.

For `O=C(Nc1ccc(C2CCCNC2)cn1)c1ccc(Cl)cc1` (racemic) [Example 187, (RS)-4-Chloro-N-(5-(piperidin-3-yl)pyridin-2-yl)benzamide hydrochloride], the Ki is 0.0123 µM.

For the molecule `O=C(Nc1ccc(C2CNCCO2)cc1)C1CCN(c2ccncn2)CC1` (racemic) [Example 287, (RS)—N-(4-(Morpholin-2-yl)phenyl)-1-(pyrimidin-4-yl)piperidine-4-carboxamide dihydrochloride], the Ki came to 0.379 µM.

Take `Cc1cnc(C(=O)Nc2ccc([C@@H]3CCCNC3)cc2)cn1` [Example 247, (S)-5-Methyl-N-(4-(piperidin-3-yl)phenyl)pyrazine-2-carboxamide hydrochloride]: the Ki is 0.0677 µM.

Regarding `O=C(NCc1ccc([C@H]2CNCCO2)cc1)c1ccc(Cl)cc1` [Example 317, (S)-4-Chloro-N-(4-(morpholin-2-yl)benzyl)benzamide hydrochloride], the Ki was 0.0226 µM.

`O=C(NCc1ccc([C@H]2CNCCO2)cc1)c1ccc(Cl)nc1` [Example 319, (S)-6-Chloro-N-(4-(morpholin-2-yl)benzyl)nicotinamide hydrochloride]: the Ki amounted to 0.0206 µM.

The same experiment, now with this note: read-out: Ki (μM) rat.
Consider `O=C(NCc1ccc([C@H]2CNCCO2)cc1)c1ccc(C(F)(F)F)nc1` [Example 320, (S)—N-(4-(Morpholin-2-yl)benzyl)-6-(trifluoromethyl)nicotinamide hydrochloride], for which the inhibitory constant (Ki) amounted to 0.0249 µM.
